Earlier results, collected in paper PMC6931083 (Journal of Pharmaceutical Analysis, 2019).

Settings: ref 6 (Hentz et al.)

Substance	Biological activity compared to the native insulin	Decrease in biological activity as compared to the native insulin [%]
mono-conjugated FITC-insulin (tagged at B1 position): literature (Hentz et al.) mono-conjugated FITC-insulin tagged at B1 position	same biological activity as the native insulin	
di-conjugated FITC-insulin: di-conjugated FITC-insulin at B1 and A1 (literature value, Hentz et al.)		100
A1 conjugated FITC-insulin: literature (Hentz et al.) FITC-insulin conjugated at A1		10
